Measurements as given in patent US10206394B2, “Herbicidal compounds” (Syngenta Participations AG, priority 2014, dated 2019).
Like-named read-outs stand apart in the source and are kept apart here.

Experiments:
Test in all cases: Glasshouse assay for herbicidal activity (pre- and post-emergence), percentage phytotoxicity
Assay type in all cases: in vivo
[1] = test system: Alopecurus myosuroides (ALOMY); details: Alopecurus myosuroides
Outline: (§1)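 Percent injury was estimated by eye on a scale where 0% means no damage and 100% complete damage. Ratings came 15 DAA post-emergence and 20 DAA pre-emergence, with plants held under 16 h light and 65% humidity at 24/18 °C or 20/16 °C day/night.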

Avena fatua (AVEFA) = details: Avena fatua
Outline: as §1

[2] = test system: Echinochloa crus-galli (ECHCG); details: Echinochloa crus-galli
Outline: as §1

Lolium perenne (LOLPE) = details: Lolium perenne
Outline: as §1

[3] = post-emergence, 360 h, Rate 250 g/ha, post-emergence, assessed visually 15 DAA, 100%=total damage, 0%=no damage, read-out: Post-emergence herbicidal activity (percentage phytotoxicity) ALOMY POST
[4] = pre-emergence, 480 h, Rate 250 g/ha, pre-emergence, assessed visually 20 DAA, 100%=total damage, 0%=no damage, read-out: Pre-emergence herbicidal activity (percentage phytotoxicity) ALOMY PRE
[5] = post-emergence, 360 h, Rate 250 g/ha, post-emergence, assessed visually 15 DAA, 100%=total damage, 0%=no damage, read-out: Post-emergence herbicidal activity (percentage phytotoxicity) AVEFA POST
[6] = pre-emergence, 480 h, Rate 250 g/ha, pre-emergence, assessed visually 20 DAA, 100%=total damage, 0%=no damage, read-out: Pre-emergence herbicidal activity (percentage phytotoxicity) AVEFA PRE
[7] = post-emergence, 360 h, Rate 250 g/ha, post-emergence, assessed visually 15 DAA, 100%=total damage, 0%=no damage, read-out: Post-emergence herbicidal activity (percentage phytotoxicity) ECHCG POST
[8] = pre-emergence, 480 h, Rate 250 g/ha, pre-emergence, assessed visually 20 DAA, 100%=total damage, 0%=no damage, read-out: Pre-emergence herbicidal activity (percentage phytotoxicity) ECHCG PRE
[9] = post-emergence, 360 h, Rate 250 g/ha, post-emergence, assessed visually 15 DAA, 100%=total damage, 0%=no damage, read-out: Post-emergence herbicidal activity (percentage phytotoxicity) LOLPE POST
[10] = pre-emergence, 480 h, Rate 250 g/ha, pre-emergence, assessed visually 20 DAA, 100%=total damage, 0%=no damage, read-out: Pre-emergence herbicidal activity (percentage phytotoxicity) LOLPE PRE
[11] = post-emergence, 360 h, POST-emergence, rate 250 g/ha, visual score 15 DAA (100%=total damage, 0%=no damage), read-out: Post-emergence herbicidal activity (percentage phytotoxicity) ALOMY POST
[12] = pre-emergence, 480 h, PRE-emergence, rate 250 g/ha, visual score 20 DAA (100%=total damage, 0%=no damage), read-out: Pre-emergence herbicidal activity (percentage phytotoxicity) ALOMY PRE
[13] = post-emergence, 360 h, POST-emergence, rate 250 g/ha, visual score 15 DAA (100%=total damage, 0%=no damage), read-out: Post-emergence herbicidal activity (percentage phytotoxicity) AVEFA POST
[14] = pre-emergence, 480 h, PRE-emergence, rate 250 g/ha, visual score 20 DAA (100%=total damage, 0%=no damage), read-out: Pre-emergence herbicidal activity (percentage phytotoxicity) AVEFA PRE
[15] = post-emergence, 360 h, POST-emergence, rate 250 g/ha, visual score 15 DAA (100%=total damage, 0%=no damage), read-out: Post-emergence herbicidal activity (percentage phytotoxicity) ECHCG POST
[16] = pre-emergence, 480 h, PRE-emergence, rate 250 g/ha, visual score 20 DAA (100%=total damage, 0%=no damage), read-out: Pre-emergence herbicidal activity (percentage phytotoxicity) ECHCG PRE
[17] = post-emergence, 360 h, POST-emergence, rate 250 g/ha, visual score 15 DAA (100%=total damage, 0%=no damage), read-out: Post-emergence herbicidal activity (percentage phytotoxicity) LOLPE POST
[18] = pre-emergence, 480 h, PRE-emergence, rate 250 g/ha, visual score 20 DAA (100%=total damage, 0%=no damage), read-out: Pre-emergence herbicidal activity (percentage phytotoxicity) LOLPE PRE

| SMILES | pest or weed control at 250 g/ha [1, 3] | pest or weed control at 250 g/ha [1, 4] | pest or weed control at 250 g/ha (Avena fatua (AVEFA); [5]) | pest or weed control at 250 g/ha (Avena fatua (AVEFA); [6]) | pest or weed control at 250 g/ha [2, 7] | pest or weed control at 250 g/ha [2, 8] | pest or weed control at 250 g/ha (Lolium perenne (LOLPE); [9]) | pest or weed control at 250 g/ha (Lolium perenne (LOLPE); [10]) | pest or weed control at 250 g/ha [1, 11] | pest or weed control at 250 g/ha [1, 12] | pest or weed control at 250 g/ha (Avena fatua (AVEFA); [13]) | pest or weed control at 250 g/ha (Avena fatua (AVEFA); [14]) | pest or weed control at 250 g/ha [2, 15] | pest or weed control at 250 g/ha [2, 16] | pest or weed control at 250 g/ha (Lolium perenne (LOLPE); [17]) | pest or weed control at 250 g/ha (Lolium perenne (LOLPE); [18]) | also measured |
| --- | --- | --- | --- | --- | --- | --- | --- | --- | --- | --- | --- | --- | --- | --- | --- | --- | --- |
| Cc1cc(C)c(C2C(=O)CC(CC(=O)NCc3ncccc3C)C2=O)c(C)c1 (stereo not shown) [Compound B67] | – | – | – | – | – | – | – | – | – | – | – | – | – | – | – | – | pest or weed control at 250 g/ha ([1]; post-emergence, 360 h, 250 g/ha, post-emergence, 15 DAA, visual assessment (100%=total damage, 0%=no damage), read-out: Post-emergence herbicidal activity (percentage phytotoxicity) ALOMY POST): 90%; pest or weed control at 250 g/ha ([1]; pre-emergence, 480 h, 250 g/ha, pre-emergence, 20 DAA, visual assessment (100%=total damage, 0%=no damage), read-out: Pre-emergence herbicidal activity (percentage phytotoxicity) ALOMY PRE): 90%; pest or weed control at 250 g/ha (Avena fatua (AVEFA); post-emergence, 360 h, 250 g/ha, post-emergence, 15 DAA, visual assessment (100%=total damage, 0%=no damage), read-out: Post-emergence herbicidal activity (percentage phytotoxicity) AVEFA POST): 80%; pest or weed control at 250 g/ha (Avena fatua (AVEFA); pre-emergence, 480 h, 250 g/ha, pre-emergence, 20 DAA, visual assessment (100%=total damage, 0%=no damage), read-out: Pre-emergence herbicidal activity (percentage phytotoxicity) AVEFA PRE): 10%; pest or weed control at 250 g/ha ([2]; post-emergence, 360 h, 250 g/ha, post-emergence, 15 DAA, visual assessment (100%=total damage, 0%=no damage), read-out: Post-emergence herbicidal activity (percentage phytotoxicity) ECHCG POST): 80%; pest or weed control at 250 g/ha ([2]; pre-emergence, 480 h, 250 g/ha, pre-emergence, 20 DAA, visual assessment (100%=total damage, 0%=no damage), read-out: Pre-emergence herbicidal activity (percentage phytotoxicity) ECHCG PRE): 90%; pest or weed control at 250 g/ha (Lolium perenne (LOLPE); post-emergence, 360 h, 250 g/ha, post-emergence, 15 DAA, visual assessment (100%=total damage, 0%=no damage), read-out: Post-emergence herbicidal activity (percentage phytotoxicity) LOLPE POST): 70%; pest or weed control at 250 g/ha (Lolium perenne (LOLPE); pre-emergence, 480 h, 250 g/ha, pre-emergence, 20 DAA, visual assessment (100%=total damage, 0%=no damage), read-out: Pre-emergence herbicidal activity (percentage phytotoxicity) LOLPE PRE): 90% |
| Cc1cc(C)c(C2C(=O)CC(C(C)C(=O)NCc3cccs3)C2=O)c(C)c1 (stereo not shown) [Compound A165] | 60% | 60% | 80% | 0% | 90% | 100% | 80% | 70% | – | – | – | – | – | – | – | – | – |
| Cc1cc(-c2ncc(Cl)cc2F)cc(C)c1C1C(=O)CC(CC(=O)NCc2cccs2)C1=O (stereo not shown) [Compound A125] | 90% | 70% | 100% | 80% | 100% | 100% | 100% | 90% | – | – | – | – | – | – | – | – | – |
| C#CCN(C)C(=O)CC1CC(=O)C(c2c(C)cc(-n3cc(Cl)cn3)cc2C)C1=O (stereo not shown) [Compound B230] | – | – | – | – | – | – | – | – | 100% | 90% | 100% | 90% | 100% | 100% | 90% | 90% | – |
| C=CC(C)NC(=O)CC1CC(=O)C(c2c(C)cc(C)cc2C)C1=O (stereo not shown) [Compound B179] | – | – | – | – | – | – | – | – | 90% | 90% | 80% | 70% | 100% | 100% | 90% | 100% | – |
